# ChEMBL document CHEMBL5465560, “Selectivity Literature for EUbOPEN Chemogenomic Library” (2024)
# Positions count from the first letter of the chain named.
# Assays:
# [1] = biological target: T1, Inhibitor of nuclear factor kappa-B kinase subunit epsilon (Homo sapiens) (UniProt Q14164); test: Selectivity interaction (ActivX KiNativ screen (kinase selectivity in THP-1 cell lysates)) EUB0000639a IKBKE; format: subcellular; details: lysate, at 5 µM
# T1 sequence (whole entry): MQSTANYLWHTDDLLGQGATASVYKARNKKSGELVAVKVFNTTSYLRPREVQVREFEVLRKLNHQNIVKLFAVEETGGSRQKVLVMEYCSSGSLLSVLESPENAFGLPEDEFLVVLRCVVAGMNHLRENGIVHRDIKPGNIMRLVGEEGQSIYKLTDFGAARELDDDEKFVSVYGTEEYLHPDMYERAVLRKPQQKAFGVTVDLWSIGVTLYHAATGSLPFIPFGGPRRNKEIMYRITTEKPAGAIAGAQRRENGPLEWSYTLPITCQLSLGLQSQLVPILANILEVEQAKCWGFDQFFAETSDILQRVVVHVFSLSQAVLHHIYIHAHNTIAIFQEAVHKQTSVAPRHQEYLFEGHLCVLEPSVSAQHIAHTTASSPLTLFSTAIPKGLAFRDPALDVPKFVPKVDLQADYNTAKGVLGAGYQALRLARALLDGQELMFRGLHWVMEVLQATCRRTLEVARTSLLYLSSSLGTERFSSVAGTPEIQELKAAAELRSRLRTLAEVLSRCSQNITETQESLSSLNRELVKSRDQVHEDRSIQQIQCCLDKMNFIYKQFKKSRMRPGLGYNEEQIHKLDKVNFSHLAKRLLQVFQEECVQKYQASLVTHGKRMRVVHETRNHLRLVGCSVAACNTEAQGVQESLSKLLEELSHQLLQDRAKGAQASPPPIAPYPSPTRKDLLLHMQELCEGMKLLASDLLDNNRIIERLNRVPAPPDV
# [2] = system: T2, Receptor-type tyrosine-protein kinase FLT3 (Homo sapiens), P36888 [N841I]; test: (§1) Selectivity interaction (KinomeScan (DiscoverX)) EUB0000311b FLT3; details: at 1 µM
# T2 sequence (whole entry): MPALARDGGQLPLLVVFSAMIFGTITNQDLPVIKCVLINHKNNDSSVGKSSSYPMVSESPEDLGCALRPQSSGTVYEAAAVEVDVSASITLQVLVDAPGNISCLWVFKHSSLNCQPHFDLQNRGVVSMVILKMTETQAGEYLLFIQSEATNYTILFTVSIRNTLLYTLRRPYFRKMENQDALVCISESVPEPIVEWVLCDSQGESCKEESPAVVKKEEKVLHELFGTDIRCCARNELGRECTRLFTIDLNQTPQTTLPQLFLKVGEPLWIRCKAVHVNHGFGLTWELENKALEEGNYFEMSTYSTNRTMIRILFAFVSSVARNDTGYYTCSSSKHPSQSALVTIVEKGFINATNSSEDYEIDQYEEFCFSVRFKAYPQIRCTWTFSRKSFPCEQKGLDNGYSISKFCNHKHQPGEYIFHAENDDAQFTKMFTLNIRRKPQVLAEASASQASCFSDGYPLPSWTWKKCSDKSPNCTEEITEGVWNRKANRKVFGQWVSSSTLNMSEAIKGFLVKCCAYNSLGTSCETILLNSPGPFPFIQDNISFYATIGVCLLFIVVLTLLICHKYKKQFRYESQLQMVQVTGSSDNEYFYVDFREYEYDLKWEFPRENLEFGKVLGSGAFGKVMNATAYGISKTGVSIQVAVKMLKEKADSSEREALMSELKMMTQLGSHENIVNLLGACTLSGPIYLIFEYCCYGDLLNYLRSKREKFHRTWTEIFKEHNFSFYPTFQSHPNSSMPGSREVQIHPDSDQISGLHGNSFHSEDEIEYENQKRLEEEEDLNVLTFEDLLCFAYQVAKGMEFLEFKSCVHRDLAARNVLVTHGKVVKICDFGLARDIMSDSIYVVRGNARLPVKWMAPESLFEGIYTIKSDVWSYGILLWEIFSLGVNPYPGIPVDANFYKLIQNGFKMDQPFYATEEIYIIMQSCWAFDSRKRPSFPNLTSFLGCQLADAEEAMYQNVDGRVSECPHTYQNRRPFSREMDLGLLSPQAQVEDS
# [3] = system: T3, Receptor-type tyrosine-protein kinase FLT3 (Homo sapiens), P36888 [D835H]; test: as §1; details: at 1 µM
# T3 sequence (whole entry): T2 sequence (whole entry) with D835H, I841N
% of inhibition [1] [%],% of control [2] [%],% of control [3] [%],Structure (SMILES)
26.2,,,CC[C@@H]1[C@H](F)C(=O)N[C@@H]1COc1nccc2cc(C(N)=O)c(OC)cc12 [ZIMLOVISERTIB]
,0,16,CCc1ccccc1C(=O)Nc1n[nH]c2c(C)c(F)c(C3C(C#N)=C(C)N(C)C(C)=C3C#N)cc12 [BAY-3827]
